From ChEMBL document CHEMBL4251615, “Discovery of anilino-furo[2,3-d]pyrimidine derivatives as dual inhibitors of EGFR/HER2 tyrosine kinase and their anticancer activity” (Eur J Med Chem, 2018)

Experiments:
Format in all cases: functional
CCRF-CEM = test: Growth inhibition of human CCRF-CEM cells assessed as cell growth at 10 uM incubated for 48 hrs by sulforhodamine B assay relative to control; conditions: read-out: Activity
RPMI-8226 = test: Growth inhibition of human RPMI8226 cells assessed as cell growth at 10 uM incubated for 48 hrs by sulforhodamine B assay relative to control; conditions: RPMI-8226, 48 h, read-out: Activity
A549 = test: Growth inhibition of human A549/ATCC cells assessed as cell growth at 10 uM incubated for 48 hrs by sulforhodamine B assay relative to control; conditions: A549, 48 h, read-out: Activity
NCI-H322M = test: Growth inhibition of human NCI-H322M cells assessed as cell growth at 10 uM incubated for 48 hrs by sulforhodamine B assay relative to control; conditions: read-out: Activity
HCC 2998 = test: Growth inhibition of human HCC2998 cells assessed as cell growth at 10 uM incubated for 48 hrs by sulforhodamine B assay relative to control; conditions: HCC 2998, 48 h, read-out: Activity
SW-620 = test: Growth inhibition of human SW620 cells assessed as cell growth at 10 uM incubated for 48 hrs by sulforhodamine B assay relative to control; conditions: SW-620, 48 h, read-out: Activity
SF-268 = test: Growth inhibition of human SF268 cells assessed as cell growth at 10 uM incubated for 48 hrs by sulforhodamine B assay relative to control; conditions: SF-268, 48 h, read-out: Activity
SF-539 = test: Growth inhibition of human SF539 cells assessed as cell growth at 10 uM incubated for 48 hrs by sulforhodamine B assay relative to control; conditions: SF-539, 48 h, read-out: Activity
U-251 = test: Growth inhibition of human U251 cells assessed as cell growth at 10 uM incubated for 48 hrs by sulforhodamine B assay relative to control; conditions: U-251, 48 h, read-out: Activity
Malme-3M = test: Growth inhibition of human MALME-3M cells assessed as cell growth at 10 uM incubated for 48 hrs by sulforhodamine B assay relative to control; conditions: read-out: Activity
M14 = test: Growth inhibition of human M14 cells assessed as cell growth at 10 uM incubated for 48 hrs by sulforhodamine B assay relative to control; conditions: M14, 48 h, read-out: Activity
MDA-MB-435 = test: Growth inhibition of human MDA-MB-435 cells assessed as cell growth at 10 uM incubated for 48 hrs by sulforhodamine B assay relative to control; conditions: MDA-MB-435, 48 h, read-out: Activity
UACC-62 = test: Growth inhibition of human UACC62 cells assessed as cell growth at 10 uM incubated for 48 hrs by sulforhodamine B assay relative to control; conditions: UACC-62, 48 h, read-out: Activity
OVCAR-4 = test: Growth inhibition of human OVCAR4 cells assessed as cell growth at 10 uM incubated for 48 hrs by sulforhodamine B assay relative to control; conditions: OVCAR-4, 48 h, read-out: Activity
OVCAR-5 = test: Growth inhibition of human OVCAR5 cells assessed as cell growth at 10 uM incubated for 48 hrs by sulforhodamine B assay relative to control; conditions: OVCAR-5, 48 h, read-out: Activity
SK-OV-3 = test: Growth inhibition of human SKOV3 cells assessed as cell growth at 10 uM incubated for 48 hrs by sulforhodamine B assay relative to control; conditions: SK-OV-3, 48 h, read-out: Activity
A498 = test: Growth inhibition of human A498 cells assessed as cell growth at 10 uM incubated for 48 hrs by sulforhodamine B assay relative to control; conditions: A498, 48 h, read-out: Activity
CAKI-1 = test: Growth inhibition of human Caki1 cells assessed as cell growth at 10 uM incubated for 48 hrs by sulforhodamine B assay relative to control; conditions: CAKI-1, 48 h, read-out: Activity
PC-3 = test: Growth inhibition of human PC3 cells assessed as cell growth at 10 uM incubated for 48 hrs by sulforhodamine B assay relative to control; conditions: PC-3, 48 h, read-out: Activity
Hs-578T = test: Growth inhibition of human Hs 578T cells assessed as cell growth at 10 uM incubated for 48 hrs by sulforhodamine B assay relative to control; conditions: read-out: Activity
BT-549 = test: Growth inhibition of human BT549 cells assessed as cell growth at 10 uM incubated for 48 hrs by sulforhodamine B assay relative to control; conditions: BT-549, 48 h, read-out: Activity
MDA-MB-468 = test: Growth inhibition of human MDA-MB-468 cells assessed as cell growth at 10 uM incubated for 48 hrs by sulforhodamine B assay relative to control; conditions: MDA-MB-468, 48 h, read-out: Activity
K562 = test: Growth inhibition of human K562 cells assessed as cell growth at 10 uM incubated for 48 hrs by sulforhodamine B assay relative to control; conditions: K562, 48 h, read-out: Activity
MOLT-4 = test: Growth inhibition of human MOLT4 cells assessed as cell growth at 10 uM incubated for 48 hrs by sulforhodamine B assay relative to control; conditions: MOLT-4, 48 h, read-out: Activity
EKVX = test: Growth inhibition of human EKVX cells assessed as cell growth at 10 uM incubated for 48 hrs by sulforhodamine B assay relative to control; conditions: read-out: Activity
HCT-15 = test: Growth inhibition of human HCT15 cells assessed as cell growth at 10 uM incubated for 48 hrs by sulforhodamine B assay relative to control; conditions: HCT-15, 48 h, read-out: Activity
MCF7 = test: Growth inhibition of human MCF7 cells assessed as cell growth at 10 uM incubated for 48 hrs by sulforhodamine B assay relative to control; conditions: MCF7, 48 h, read-out: Activity

Structure (SMILES) | growth at 10 µM (RPMI-8226) | growth at 10 µM (A549) | growth at 10 µM (NCI-H322M) | growth at 10 µM (HCC 2998) | growth at 10 µM (SW-620) | growth at 10 µM (SF-268) | growth at 10 µM (SF-539) | growth at 10 µM (U-251) | growth at 10 µM (Malme-3M) | growth at 10 µM (M14) | growth at 10 µM (MDA-MB-435) | growth at 10 µM (UACC-62) | growth at 10 µM (OVCAR-4) | growth at 10 µM (OVCAR-5) | growth at 10 µM (SK-OV-3) | growth at 10 µM (A498) | growth at 10 µM (CAKI-1) | growth at 10 µM (PC-3) | growth at 10 µM (Hs-578T) | growth at 10 µM (BT-549) | further results
CCOC(=O)c1c(C)oc2ncnc(Nc3ccc(F)cc3)c12 | 103% | 99.4% | 101% | 108% | 94.9% | 98.5% | 93.6% | 98% | 95.4% | 103% | 101% | 88.6% | 99.1% | 91.4% | 104% | 80.4% | 97.9% | 111% | 96.1% | 98.5% | growth at 10 µM (CCRF-CEM): 31.3%; growth at 10 µM (MDA-MB-468): 103%
Cc1oc2ncnc(Nc3cccc(Cl)c3)c2c1CO | 70.4% | 82.1% | 95% | 93.2% | 93.2% | 92.9% | 91.6% | 92.3% | 88.1% | 94% | 93.1% | 76.4% | 92.5% | 74.3% | 101% | 51.6% | 53.7% | 71.3% | 96.2% | 81.9% | growth at 10 µM (CCRF-CEM): 100%; growth at 10 µM (K562): 85.4%; growth at 10 µM (MOLT-4): 86.2%; growth at 10 µM (EKVX): 64.4%; growth at 10 µM (HCT-15): 67.3%; growth at 10 µM (MCF7): 89.7%; growth at 10 µM (MDA-MB-468): 69.1%
CCOC(=O)c1c(C)oc2ncnc(Nc3cccc(F)c3)c12 | 107% | 93% | 106% | 103% | 94.2% | 102% | 99.4% | 106% | 131% | 98.2% | 101% | 84% | 108% | 102% | 101% | 75.9% | 92% | 94.7% | 99% | 94.2% | growth at 10 µM (CCRF-CEM): 98.8%; growth at 10 µM (K562): 101%; growth at 10 µM (MOLT-4): 62.5%; growth at 10 µM (EKVX): 101%; growth at 10 µM (HCT-15): 95.3%; growth at 10 µM (MCF7): 95.4%; growth at 10 µM (MDA-MB-468): 96.5%
CCOC(=O)c1c(C)oc2ncnc(Nc3ccc(F)c(Cl)c3)c12 | 101% | 86.9% | 101% | 109% | 101% | 97.6% | 104% | 91.8% | 114% | 110% | 114% | 94.9% | 118% | 112% | 90.7% | 87.4% | 106% | 85.6% | 97% | 101% | growth at 10 µM (K562): 93.8%; growth at 10 µM (MOLT-4): 99.2%; growth at 10 µM (EKVX): 108%; growth at 10 µM (HCT-15): 112%; growth at 10 µM (MCF7): 104%; growth at 10 µM (MDA-MB-468): 112%
Cc1oc2ncnc(Nc3cccc(F)c3)c2c1C(=O)NCCO | 106% | 91% | 104% | 114% | 103% | 101% | 90.9% | 104% | 118% | 109% | 108% | 92.2% | 108% | 100% | 89.2% | 83% | 90.5% | 111% | 103% | 96.3% | growth at 10 µM (CCRF-CEM): 117%; growth at 10 µM (MDA-MB-468): 106%
